According to ChEMBL document CHEMBL1201862, “PubChem BioAssay data set” (2004):
Activity calls are given as the source filed them.

What was measured:
[1] = target: Vascular endothelial growth factor receptor 1 (Homo sapiens, UniProt P17948); type: functional;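 further: measured within a kinome-wide profiling panel, FLT1 as the panel member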
[2] = target: BDNF/NT-3 growth factors receptor (Homo sapiens, UniProt Q16620); type: functional;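 further: NTRK2 measured as one member of a broad kinome-wide kinase profiling panel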
LIM domain kinase 1 = LIM domain kinase 1 (Homo sapiens, UniProt P53667); test: Navigating the Kinome. Panel member name: LIMK1; type: functional
[3] = target: Calcium/calmodulin-dependent protein kinase type 1 (Homo sapiens, UniProt Q14012); type: functional
[4] = target: Hepatocyte growth factor receptor (Homo sapiens, UniProt P08581); type: functional;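 further: kinase panel profiling across the kinome, with MET as the panel member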
[5] = target: Proto-oncogene tyrosine-protein kinase ROS (Homo sapiens, UniProt P08922); type: functional;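 further: ROS1 tested as one member of a kinome-wide kinase panel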
[6] = target: Interleukin-1 receptor-associated kinase 1 (Homo sapiens, UniProt P51617); type: functional;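 further: IRAK1 tested as one member of a kinome panel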
[7] = target: Testis-specific serine/threonine-protein kinase 1 (Homo sapiens, UniProt Q9BXA7); type: functional
[8] = target: Serine/threonine-protein kinase NLK (Homo sapiens, UniProt Q9UBE8); test: Navigating the Kinome. Panel member name: NLK; type: functional
[9] = target: Tyrosine-protein kinase JAK2 (Homo sapiens, UniProt O60674); type: functional;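 further: JAK2 tested as one member of a kinase panel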
[10] = target: Tyrosine-protein kinase receptor TYRO3 (Homo sapiens, UniProt Q06418); type: functional;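 further: TYRO3 value obtained as one member of a kinome-wide profiling panel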
[11] = target: Ribosomal protein S6 kinase beta-1 (Homo sapiens, UniProt P23443); type: functional;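 further: measured as one member of a kinome-wide profiling panel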
[12] = target: DNA (cytosine-5)-methyltransferase 1 (Homo sapiens, UniProt P26358); test: inhibition of DNA methylation by DNMT1 – biochemical, fluorescent molecular beacon, confirmation (AID 602386); type: functional
Bcl-2-like protein 10 = target: T1, Bcl-2-like protein 10 (Homo sapiens, UniProt Q9HD36); test: Bcl-B/TR3 peptide binding disruption – biochemical, fluorescence polarization, FITC-TR3 peptide, selectivity assay for Bfl-1 inhibitor project, primary screen (AID 748);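 further: fluorescence polarization from a fluorescein-labelled TR3 peptide binding purified Bcl-B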
T1 sequence (Q9HD36 whole entry): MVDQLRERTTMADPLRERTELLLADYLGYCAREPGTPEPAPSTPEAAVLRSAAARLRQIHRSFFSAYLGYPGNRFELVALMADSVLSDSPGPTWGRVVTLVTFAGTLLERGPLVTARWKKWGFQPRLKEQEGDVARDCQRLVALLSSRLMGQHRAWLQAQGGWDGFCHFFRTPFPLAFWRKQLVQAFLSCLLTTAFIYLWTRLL

[13] = target: T2, Zinc finger protein mex-5 (Caenorhabditis elegans, UniProt Q9XUB2); test: potency of MEX-5 RNA-binding blockers – biochemical, C. elegans, fluorescence polarization, dose response (AID 1960)
T2 sequence (Q9XUB2 whole entry): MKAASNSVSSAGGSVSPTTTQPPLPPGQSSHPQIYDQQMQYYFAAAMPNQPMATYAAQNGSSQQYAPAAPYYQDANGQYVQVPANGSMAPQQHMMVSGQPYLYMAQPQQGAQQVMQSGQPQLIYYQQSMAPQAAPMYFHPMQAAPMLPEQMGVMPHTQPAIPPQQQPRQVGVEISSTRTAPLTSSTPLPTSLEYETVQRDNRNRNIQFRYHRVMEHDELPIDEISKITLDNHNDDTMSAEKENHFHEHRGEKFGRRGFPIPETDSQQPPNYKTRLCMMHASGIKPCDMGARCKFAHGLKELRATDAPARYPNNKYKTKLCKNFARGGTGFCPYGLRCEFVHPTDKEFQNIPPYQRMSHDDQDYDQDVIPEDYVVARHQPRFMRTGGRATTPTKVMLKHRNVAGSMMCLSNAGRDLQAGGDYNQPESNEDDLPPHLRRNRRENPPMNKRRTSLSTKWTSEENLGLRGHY

Caspase-3 = target: T3, Caspase-3 (Homo sapiens, UniProt P42574); type: functional;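 further: Dose-response selectivity test against caspase-3 for candidate inhibitors of sentrin-specific proteases (SENPs)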
T3 sequence (P42574 whole entry): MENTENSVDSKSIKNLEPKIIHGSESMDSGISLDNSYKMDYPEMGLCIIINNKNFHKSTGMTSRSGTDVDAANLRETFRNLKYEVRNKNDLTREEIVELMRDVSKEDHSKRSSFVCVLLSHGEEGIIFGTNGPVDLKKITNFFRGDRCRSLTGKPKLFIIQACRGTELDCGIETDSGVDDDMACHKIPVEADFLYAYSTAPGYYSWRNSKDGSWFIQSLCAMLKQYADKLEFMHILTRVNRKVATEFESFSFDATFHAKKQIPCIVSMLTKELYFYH

[14] = target: ATP-dependent molecular chaperone HSP82 (Candida albicans (strain WO-1) (Yeast), UniProt C4YTQ8); test: steroid-induced GRE reporter decrease in yeast – S. cerevisiae, luminescence, Hsp90 inhibitor project, dose response (AID 2400); type: functional, cell-based;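 further: beta-galactosidase luminescence from glucocorticoid response element reporter as proxy for Hsp90 function; inhibitor potency where signal loss means Hsp90 inhibition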
Sequence of ATP-dependent molecular chaperone HSP82 (C4YTQ8 whole entry): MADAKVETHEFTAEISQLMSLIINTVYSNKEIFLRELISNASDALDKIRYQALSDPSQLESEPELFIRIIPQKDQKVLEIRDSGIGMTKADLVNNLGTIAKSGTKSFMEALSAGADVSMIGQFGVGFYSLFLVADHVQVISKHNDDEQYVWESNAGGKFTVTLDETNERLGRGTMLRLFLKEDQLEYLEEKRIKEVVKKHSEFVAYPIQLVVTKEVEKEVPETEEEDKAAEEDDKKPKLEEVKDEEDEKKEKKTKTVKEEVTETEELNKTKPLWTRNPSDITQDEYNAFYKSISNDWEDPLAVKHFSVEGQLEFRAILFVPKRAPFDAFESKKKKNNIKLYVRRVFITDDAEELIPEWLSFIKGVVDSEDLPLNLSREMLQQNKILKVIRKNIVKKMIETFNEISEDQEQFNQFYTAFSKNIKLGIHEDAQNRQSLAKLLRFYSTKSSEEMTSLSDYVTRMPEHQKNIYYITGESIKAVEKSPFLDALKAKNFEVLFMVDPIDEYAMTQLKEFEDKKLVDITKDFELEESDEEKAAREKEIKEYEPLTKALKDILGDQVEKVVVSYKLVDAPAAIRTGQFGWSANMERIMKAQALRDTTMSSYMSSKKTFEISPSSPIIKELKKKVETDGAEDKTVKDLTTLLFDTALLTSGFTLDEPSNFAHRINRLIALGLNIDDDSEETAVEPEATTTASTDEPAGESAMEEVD

Sequence of Tyrosine-protein kinase receptor TYRO3 (Q06418 whole entry): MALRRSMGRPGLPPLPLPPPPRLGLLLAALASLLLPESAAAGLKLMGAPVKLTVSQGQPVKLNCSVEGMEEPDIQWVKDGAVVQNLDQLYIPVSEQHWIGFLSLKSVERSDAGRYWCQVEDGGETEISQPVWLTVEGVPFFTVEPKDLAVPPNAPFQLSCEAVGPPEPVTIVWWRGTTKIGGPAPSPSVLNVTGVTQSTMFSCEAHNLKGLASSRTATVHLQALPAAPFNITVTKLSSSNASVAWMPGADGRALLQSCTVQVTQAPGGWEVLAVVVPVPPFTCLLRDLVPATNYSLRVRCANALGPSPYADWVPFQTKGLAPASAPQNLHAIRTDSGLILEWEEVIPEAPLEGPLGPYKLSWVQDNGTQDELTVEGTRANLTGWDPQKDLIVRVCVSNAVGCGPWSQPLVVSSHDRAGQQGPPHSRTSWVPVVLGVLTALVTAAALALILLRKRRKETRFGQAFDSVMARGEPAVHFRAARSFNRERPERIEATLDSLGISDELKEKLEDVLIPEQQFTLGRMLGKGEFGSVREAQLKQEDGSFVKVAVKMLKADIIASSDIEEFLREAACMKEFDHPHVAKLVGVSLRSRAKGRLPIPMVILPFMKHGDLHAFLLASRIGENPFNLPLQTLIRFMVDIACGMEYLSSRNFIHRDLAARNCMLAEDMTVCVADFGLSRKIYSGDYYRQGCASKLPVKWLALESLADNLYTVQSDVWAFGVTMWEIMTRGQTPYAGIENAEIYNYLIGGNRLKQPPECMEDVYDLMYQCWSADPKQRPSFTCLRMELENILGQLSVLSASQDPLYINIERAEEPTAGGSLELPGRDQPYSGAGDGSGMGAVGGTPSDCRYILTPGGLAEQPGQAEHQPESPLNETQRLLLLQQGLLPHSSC
Sequence of Serine/threonine-protein kinase NLK (Q9UBE8 whole entry): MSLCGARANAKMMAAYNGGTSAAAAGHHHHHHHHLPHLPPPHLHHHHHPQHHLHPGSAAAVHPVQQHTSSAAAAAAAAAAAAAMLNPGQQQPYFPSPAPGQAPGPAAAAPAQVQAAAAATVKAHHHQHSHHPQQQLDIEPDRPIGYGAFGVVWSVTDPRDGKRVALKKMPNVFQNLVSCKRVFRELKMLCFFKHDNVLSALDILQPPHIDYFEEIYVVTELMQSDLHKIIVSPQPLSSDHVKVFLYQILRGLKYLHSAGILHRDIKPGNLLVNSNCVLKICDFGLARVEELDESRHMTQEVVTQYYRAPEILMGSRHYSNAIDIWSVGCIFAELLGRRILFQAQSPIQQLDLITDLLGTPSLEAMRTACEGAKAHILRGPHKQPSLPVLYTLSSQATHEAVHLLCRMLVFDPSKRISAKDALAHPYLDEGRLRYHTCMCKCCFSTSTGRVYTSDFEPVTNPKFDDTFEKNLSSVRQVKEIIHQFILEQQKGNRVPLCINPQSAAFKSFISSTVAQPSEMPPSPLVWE
Sequence of Tyrosine-protein kinase JAK2 (O60674 whole entry): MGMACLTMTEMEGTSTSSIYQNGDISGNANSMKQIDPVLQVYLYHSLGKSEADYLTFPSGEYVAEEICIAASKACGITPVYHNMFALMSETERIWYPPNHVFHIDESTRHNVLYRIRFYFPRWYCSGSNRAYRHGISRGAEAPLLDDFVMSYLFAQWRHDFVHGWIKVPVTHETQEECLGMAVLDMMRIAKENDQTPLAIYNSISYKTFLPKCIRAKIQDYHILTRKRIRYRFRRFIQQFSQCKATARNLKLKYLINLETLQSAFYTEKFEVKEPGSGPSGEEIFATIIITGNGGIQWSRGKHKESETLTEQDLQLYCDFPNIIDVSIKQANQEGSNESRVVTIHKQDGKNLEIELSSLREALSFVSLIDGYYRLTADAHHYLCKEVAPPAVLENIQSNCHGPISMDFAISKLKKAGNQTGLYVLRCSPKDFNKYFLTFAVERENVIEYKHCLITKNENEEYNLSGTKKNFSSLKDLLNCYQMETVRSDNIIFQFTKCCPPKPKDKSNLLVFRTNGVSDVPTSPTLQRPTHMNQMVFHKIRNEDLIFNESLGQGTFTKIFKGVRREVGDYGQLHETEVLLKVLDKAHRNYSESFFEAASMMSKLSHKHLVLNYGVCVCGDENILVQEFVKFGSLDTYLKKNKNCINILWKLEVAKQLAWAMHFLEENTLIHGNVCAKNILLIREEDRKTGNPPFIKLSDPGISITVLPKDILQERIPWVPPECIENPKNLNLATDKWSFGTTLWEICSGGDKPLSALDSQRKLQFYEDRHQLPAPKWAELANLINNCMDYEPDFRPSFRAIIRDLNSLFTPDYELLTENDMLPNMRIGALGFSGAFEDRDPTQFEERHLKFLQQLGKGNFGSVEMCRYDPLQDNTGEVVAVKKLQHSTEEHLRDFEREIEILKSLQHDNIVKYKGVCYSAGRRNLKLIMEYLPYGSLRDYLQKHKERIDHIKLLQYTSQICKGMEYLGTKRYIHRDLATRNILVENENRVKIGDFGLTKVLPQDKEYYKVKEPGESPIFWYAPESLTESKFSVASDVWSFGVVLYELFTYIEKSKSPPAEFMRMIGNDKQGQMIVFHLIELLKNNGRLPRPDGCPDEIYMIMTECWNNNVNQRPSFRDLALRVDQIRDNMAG
Sequence of BDNF/NT-3 growth factors receptor (Q16620 whole entry, the tested form may be a part): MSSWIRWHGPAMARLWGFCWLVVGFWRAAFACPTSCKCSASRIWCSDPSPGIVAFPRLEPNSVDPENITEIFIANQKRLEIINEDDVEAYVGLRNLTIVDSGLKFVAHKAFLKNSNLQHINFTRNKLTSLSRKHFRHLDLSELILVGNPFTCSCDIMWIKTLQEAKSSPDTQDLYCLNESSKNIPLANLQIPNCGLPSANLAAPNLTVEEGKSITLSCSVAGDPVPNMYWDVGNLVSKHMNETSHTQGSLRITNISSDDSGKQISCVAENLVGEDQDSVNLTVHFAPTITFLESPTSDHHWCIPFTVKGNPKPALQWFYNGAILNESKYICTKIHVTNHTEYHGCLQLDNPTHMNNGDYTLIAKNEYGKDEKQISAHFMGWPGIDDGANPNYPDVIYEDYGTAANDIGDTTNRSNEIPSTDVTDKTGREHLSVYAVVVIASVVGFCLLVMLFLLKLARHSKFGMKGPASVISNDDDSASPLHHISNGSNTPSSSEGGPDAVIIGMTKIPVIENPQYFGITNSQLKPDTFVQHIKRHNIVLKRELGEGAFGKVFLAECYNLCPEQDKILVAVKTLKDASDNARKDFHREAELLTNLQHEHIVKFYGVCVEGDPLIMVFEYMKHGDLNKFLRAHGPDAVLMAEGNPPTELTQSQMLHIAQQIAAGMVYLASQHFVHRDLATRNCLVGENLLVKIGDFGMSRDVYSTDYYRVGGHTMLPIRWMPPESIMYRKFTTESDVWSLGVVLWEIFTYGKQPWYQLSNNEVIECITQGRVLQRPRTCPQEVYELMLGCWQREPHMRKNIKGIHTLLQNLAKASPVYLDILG
Sequence of Testis-specific serine/threonine-protein kinase 1 (Q9BXA7 whole entry): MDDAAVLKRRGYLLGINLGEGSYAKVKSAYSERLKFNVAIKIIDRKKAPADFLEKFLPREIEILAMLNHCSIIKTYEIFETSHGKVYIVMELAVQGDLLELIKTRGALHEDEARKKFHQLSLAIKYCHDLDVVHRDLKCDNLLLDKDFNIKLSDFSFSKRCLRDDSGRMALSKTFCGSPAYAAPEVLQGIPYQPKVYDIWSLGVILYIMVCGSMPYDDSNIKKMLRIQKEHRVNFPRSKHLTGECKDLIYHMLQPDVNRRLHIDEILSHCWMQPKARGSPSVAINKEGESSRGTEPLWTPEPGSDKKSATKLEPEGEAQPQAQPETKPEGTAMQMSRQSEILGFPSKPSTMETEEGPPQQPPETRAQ
Sequence of Ribosomal protein S6 kinase beta-1 (P23443 whole entry): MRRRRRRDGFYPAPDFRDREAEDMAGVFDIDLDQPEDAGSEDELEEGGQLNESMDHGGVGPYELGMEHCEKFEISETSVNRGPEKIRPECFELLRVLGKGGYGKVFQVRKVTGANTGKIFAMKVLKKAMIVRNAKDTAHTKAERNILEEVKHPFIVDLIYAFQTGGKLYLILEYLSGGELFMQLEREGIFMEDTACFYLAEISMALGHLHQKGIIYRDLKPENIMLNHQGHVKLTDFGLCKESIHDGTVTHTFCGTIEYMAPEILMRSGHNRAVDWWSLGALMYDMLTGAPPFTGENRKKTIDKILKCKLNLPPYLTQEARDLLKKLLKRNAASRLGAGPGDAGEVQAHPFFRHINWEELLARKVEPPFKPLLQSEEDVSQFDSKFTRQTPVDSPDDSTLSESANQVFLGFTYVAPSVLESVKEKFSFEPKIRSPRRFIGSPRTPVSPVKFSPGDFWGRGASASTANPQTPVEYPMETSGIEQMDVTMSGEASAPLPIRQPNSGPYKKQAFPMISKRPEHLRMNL

Cc1cccc(NC(=O)Nc2ccc3c(c2)CCc2sc4ncnc(N)c4c2-3)c1 was tested, and the Ki [1] was 0.00631 µM (active), the Ki [2] was 0.2 µM (active) and the Ki (LIM domain kinase 1) was 0.631 µM (active). For the same molecule, the Ki [3] was > 6.31 µM (inactive), the Ki [4] was > 3.16 µM (inactive) and the Ki [5] was 2 µM (active). For the same molecule, the Ki [6] was > 7.94 µM (inactive), the Ki [7] was > 1.58 µM (inactive) and the Ki [8] was 0.02 µM (active). The Ki [9] was > 1.58 µM (inactive), the Ki [10] was > 2 µM (inactive) and the Ki [11] was 0.0398 µM (active).

With N/C(=N\N=C/c1ccc(-c2ccc(O)c(C(=O)O)c2)o1)N[N+](=O)[O-] the IC50 [12] was 3.94 µM (active), the IC50 (Bcl-2-like protein 10) was 2.82 µM (active) and the EC50 [13] was 26.1 µM (active).

CC(=O)N(/N=C1\Sc2ccccc2C1=O)c1ccccc1C was tested, and the IC50 (Caspase-3) was 42.2 µM (active).

For CCCC(=O)NC(c1ccc(Cl)cc1)c1ccc2cccnc2c1O (configuration not stated), the EC50 [14] was > 160 µM (inactive).
